SMILES strings stand for the structures. Converted amounts (≈) assume the structure as drawn. Where two headings read alike, the source gives them in different places. A value given as a limit tells only on which side of the number the result lay.

A short description of this data set: Thermodynamic solubility. The conditions noted are these: for solubility thermodynamic at 24 h: 37 °C, thermodynamic from solid. Format: physicochemical. The source says:
4.2. Thermodynamic Solubility
Poor solubility, in particular poor thermodynamic solubility can limit the absorption of compounds from the gastrointestinal tract which in turn may reduce oral bioavailability.
Thermodynamic solubility investigates the solubility of a compound as a saturated solution in equilibrium, by opposition to kinetic solubility, which measures the solubility of a metastable solution where supersaturation may occur and provide over estimation of the actual solubility of the compound. (Klein, 2010)
4.2.2. Thermodynamic Solubility—Protocol 2
In a 8 mL glass vial, 1-2 mg of dry matter of compound were added and stirred with the suitable buffers (Fed State Simulated Intestine Fluid, FeSSIF, or Fasted State Simulated Intestine Fluid, FaSSIF, or Fasted State Simulated Gastric Fluid, FaSSGF, or phosphate buffer pH 7.4) for 24 h at r.t. (for the buffer pH 7.4) or 37° C. (for the GI fluids). The concentration of the mixture was 1 mg/mL.
A volume of 1000 μL were sampled, centrifuged for 10 min at 10 000 rpm and 500 μL of the supernatant were filtered on captiva plate. The samples were diluted in duplicates in DMSO (F100 and F10). Then, a final dilution (F100) in 80/20 H2O/MeCN containing the internal standard (warfarin) was used for LCMS-MS analysis.
A standard curve was made starting from a 40,000 ng/mL stock in DMSO, freshly prepared from dry matter. Then, successive concentrations at 15,000, 11,000, 6,000, 2,500, 1,000, 375, 150 and 75 ng/mL in DMSO were prepared.
Three quality control samples were made: one of 10,000, 1,500 and 200 ng/mL in DMSO, also starting from the DMSO working stock solution at 40,000 ng/mL.
The standard curve and quality controls were diluted a F100 in 80/20 H2O/MeCN (with internal standard) and analyzed on LC/MS-MS (API4000 or API5500).
The samples were analyzed on LC-MS with a flow rate of 0.6 mL/min. The mobile phase A was 0.1% formic acid in water and the mobile phase B was 0.1% formic acid in 90% MeCN and 10% of H2O. The sample was run under positive or negative ion spray on Pursuit C18—5 μm (2.0×20 mm) column, from Agilent.
The ratio analyte/internal standard peaks areas of the standard curve were plotted in a graph and a linear or polynomial of the second order equation was used to calculate the unknown concentrations of the test compound.
Solubility values were reported in μg/mL.

[1] abbreviates: Fasted State Simulated Gastric Fluid (FaSSGF), fassgf or other biorelevant, Fasted State Simulated Gastric Fluid, read-out: Tsol FaSSGF.
[2] abbreviates: Fasted State Simulated Intestine Fluid (FaSSIF), fassif, Fasted State Simulated Intestine Fluid, read-out: Tsol FaSSIF.
Where [3] appears, read: Fed State Simulated Intestine Fluid (FeSSIF), fessif, Fed State Simulated Intestine Fluid, read-out: Tsol FeSSIF.
Where [4] appears, read: Fasted State Simulated Gastric Fluid, 24 h, 37° C.

With `CCOc1cn2nc(CCC(C)(C)O)cc2cc1NC(=O)c1cccn(C(F)F)c1=O` [Compound 9, 1-(difluoromethyl)-N-[6-ethoxy-2-(3-hydroxy-3-methyl-butyl)pyrazolo[1,5-a]pyridin-5-yl]-2-oxo-pyridine-3-carboxamide], the solubility thermodynamic at 24 h runs as follows: under setting [1], 3.82 µg/mL (≈ 8.79 µM); under setting [2], 3.96 µg/mL (≈ 9.12 µM).
Regarding `COc1cn2nc(CC(F)C(C)(C)O)cc2cc1NC(=O)c1cccn(C2CC2)c1=O` (stereo not shown) [Compound 22, 1-cyclopropyl-N-[2-(2-fluoro-3-hydroxy-3-methyl-butyl)-6-methoxy-pyrazolo[1,5-a]pyridin-5-yl]-2-oxo-pyridine-3-carboxamide], the solubility thermodynamic at 24 h is 50.6 µg/mL (≈ 118 µM) under setting [1], 14 µg/mL (≈ 32.7 µM) under setting [2] and 75.9 µg/mL (≈ 177 µM) under setting [3].
With `[2H]C([2H])([2H])Oc1cn2nc(CCC(C)(C)O)cc2cc1NC(=O)c1cccn(C2CC2)c1=O` [Compound 24, 1-cyclopropyl-N-[2-(3-hydroxy-3-methylbutyl)-6-(trideuteriomethoxy)pyrazolo[1,5-a]pyridin-5-yl]-2-oxopyridine-3-carboxamide], the solubility thermodynamic at 24 h runs as follows: under setting [1], 200 µg/mL (≈ 484 µM); under setting [2], 28.5 µg/mL (≈ 68.9 µM); under setting [3], 105 µg/mL (≈ 254 µM).
Turning to `CNC(=O)c1cn2nc(C3CCOCC3)cc2cc1NC(=O)c1cccc(C(F)F)n1` [Compound 15, 5-[[6-(difluoromethyl)pyridine-2-carbonyl]amino]-N-methyl-2-tetrahydropyran-4-yl-pyrazolo[1,5-a]pyridine-6-carboxamide], the solubility thermodynamic at 24 h runs as follows: under setting [1], below 0.75 µg/mL; under setting [2], below 0.75 µg/mL.
For the compound `CNC(=O)c1cn2nc(CCC(C)(C)O)cc2cc1NC(=O)c1cccc(C(F)F)n1` [Compound 19, 5-[[6-(difluoromethyl)pyridine-2-carbonyl]amino]-2-(3-hydroxy-3-methyl-butyl)-N-methyl-pyrazolo[1,5-a]pyridine-6-carboxamide], the solubility thermodynamic at 24 h reads like this: under setting [1], 8.26 µg/mL (≈ 19.1 µM); under setting [2], 12.5 µg/mL (≈ 29 µM); under setting [3], 70.6 µg/mL (≈ 164 µM).
In the same order, the values of `[2H]C([2H])([2H])C(O)(CCc1cc2cc(NC(=O)c3cccn(C4CC4)c3=O)c(OC)cn2n1)C([2H])([2H])[2H]` [Compound 23, 1-cyclopropyl-N-[6-methoxy-2-[4,4,4-trideuterio-3-hydroxy-3-(trideuteriomethyl)butyl]pyrazolo[1,5-a]pyridin-5-yl]-2-oxo-pyridine-3-carboxamide] are 104 µg/mL (≈ 250 µM), 16 µg/mL (≈ 38.4 µM) and 93 µg/mL (≈ 223 µM).
In the same order, the values of `CC(C)(O)CCc1cc2cc(NC(=O)c3cccc(C(F)(F)F)n3)c(C(N)=O)cn2n1` [Compound 4, 2-(3-hydroxy-3-methylbutyl)-5-[[6-(trifluoromethyl)pyridine-2-carbonyl]amino]pyrazolo[1,5-a]pyridine-6-carboxamide] are below 0.75 µg/mL, 0.75 µg/mL (≈ 1.72 µM) and 6.01 µg/mL (≈ 13.8 µM).
In the same order, the values of `CCOc1cn2nc(CCC(C)(C)O)cc2cc1NC(=O)c1cccn(C)c1=O` [Compound 18, N-[6-ethoxy-2-(3-hydroxy-3-methyl-butyl)pyrazolo[1,5-a]pyridin-5-yl]-1-methyl-2-oxo-pyridine-3-carboxamide] are 68.9 µg/mL (≈ 173 µM), 20.6 µg/mL (≈ 51.7 µM) and 84.1 µg/mL (≈ 211 µM).
In the case of `NC(=O)c1cn2nc(C3CCOCC3)cc2cc1NC(=O)c1cccc(C(F)F)n1` [Compound 16, 5-[[6-(difluoromethyl)pyridine-2-carbonyl]amino]-2-tetrahydropyran-4-yl-pyrazolo[1,5-a]pyridine-6-carboxamide], under setting [2], the solubility thermodynamic at 24 h is 1.29 µg/mL (≈ 3.11 µM).
Same read-out and setting: the figure for `COc1cn2nc(CCC(C)(C)O)cc2cc1NC(=O)c1cccn(C2CCC2)c1=O` [Compound 21, 1-cyclobutyl-N-[2-(3-hydroxy-3-methyl-butyl)-6-methoxy-pyrazolo[1,5-a]pyridin-5-yl]-2-oxo-pyridine-3-carboxamide] is 16.4 µg/mL (≈ 38.6 µM).
For the compound `CCOc1cn2nc(CCC(C)(C)O)cc2cc1NC(=O)c1cccn(C2CC2)c1=O` [Compound 17, 1-cyclopropyl-N-[6-ethoxy-2-(3-hydroxy-3-methyl-butyl)pyrazolo[1,5-a]pyridin-5-yl]-2-oxo-pyridine-3-carboxamide], the solubility thermodynamic at 24 h reads like this: under setting [1], 75.7 µg/mL (≈ 178 µM); under setting [2], 24.6 µg/mL (≈ 58 µM); under setting [3], 81 µg/mL (≈ 191 µM).
For `COc1cn2nc(CCC(C)(C)O)cc2cc1NC(=O)c1cccn(C(F)F)c1=O` [Compound 7, 1-(difluoromethyl)-N-[2-(3-hydroxy-3-methyl-butyl)-6-methoxy-pyrazolo[1,5-a]pyridin-5-yl]-2-oxo-pyridine-3-carboxamide], the solubility thermodynamic at 24 h is, setting by setting: under setting [1], above 1000 µg/mL; under setting [2], 28 µg/mL (≈ 66.6 µM); under setting [3], 93.9 µg/mL (≈ 223 µM).
Regarding `COc1cn2nc(CCC(C)(C)O)cc2cc1NC(=O)c1cccn(C)c1=O` [Compound 2, N-[2-(3-hydroxy-3-methylbutyl)-6-methoxypyrazolo[1,5-a]pyridin-5-yl]-1-methyl-2-oxopyridine-3-carboxamide], the solubility thermodynamic at 24 h under setting [2] was 10.2 µg/mL (≈ 26.5 µM).
For the compound `COc1cn2nc(CC(F)C(C)(C)O)cc2cc1NC(=O)c1cccn(C2CC2)c1=O` (single isomer, unassigned; enantiomer a) [Compound 25, 1-cyclopropyl-N-[2-(2-fluoro-3-hydroxy-3-methyl-butyl)-6-methoxy-pyrazolo[1,5-a]pyridin-5-yl]-2-oxo-pyridine-3-carboxamide Enantiomer A], the “Tsol FaSSGF” value under setting [4] was 389 µg/mL. For the same compound, the solubility thermodynamic at 24 h under setting [2] is 20.2 µg/mL (≈ 47.1 µM) and the solubility thermodynamic at 24 h under setting [3] was 59.6 µg/mL (≈ 139 µM).
Take `CNC(=O)c1cn2nc(C3CCN(C)CC3)cc2cc1NC(=O)c1cccc(C(F)(F)F)n1` [Compound 12, N-methyl-2-(1-methyl-4-piperidyl)-5-[[6-(trifluoromethyl)pyridine-2-carbonyl]amino]pyrazolo[1,5-a]pyridine-6-carboxamide]: the solubility thermodynamic at 24 h is, setting by setting: under setting [1], above 1000 µg/mL; under setting [2], 183 µg/mL (≈ 397 µM).
In the same order, the values of `CC(C)(O)CCc1cc2cc(NC(=O)c3cccc(C(F)F)n3)c(C(N)=O)cn2n1` [Compound 20, 5-[[6-(difluoromethyl)pyridine-2-carbonyl]amino]-2-(3-hydroxy-3-methyl-butyl)pyrazolo[1,5-a]pyridine-6-carboxamide] are 1.62 µg/mL (≈ 3.88 µM) and 3.09 µg/mL (≈ 7.4 µM).
In the case of `COc1cn2nc(CC(F)C(C)(C)O)cc2cc1NC(=O)c1cccn(C2CC2)c1=O` (single isomer, unassigned; enantiomer b) [Compound 26, 1-cyclopropyl-N-[2-(2-fluoro-3-hydroxy-3-methyl-butyl)-6-methoxy-pyrazolo[1,5-a]pyridin-5-yl]-2-oxo-pyridine-3-carboxamide Enantiomer B], the “Tsol FaSSGF” value under setting [4] was 818 µg/mL. Further, for the setting “Fasted State Simulated Intestine Fluid, 24 h, 37° C.”, the “Tsol FaSSIF” value is 34.5 µg/mL. Under “Fed State Simulated Intestine Fluid, 24 h, 37° C.”, the “Tsol FeSSIF” value is 52.7 µg/mL.
Consider `COc1c(NC(=O)c2cccn(C3CC3)c2=O)cc2cc(CCC(C)(C)O)nn2c1C` [Compound 13, 1-cyclopropyl-N-[2-(3-hydroxy-3-methyl-butyl)-6-methoxy-7-methyl-pyrazolo[1,5-a]pyridin-5-yl]-2-oxo-pyridine-3-carboxamide], for which the solubility thermodynamic at 24 h is, setting by setting: under setting [1], 8.45 µg/mL (≈ 19.9 µM); under setting [2], 1.77 µg/mL (≈ 4.17 µM).
Turning to `CNC(=O)c1cn2nc(C3CCCS(=O)(=O)C3)cc2cc1NC(=O)c1cccc(C(F)(F)F)n1` (stereo not shown) [Compound 8, 2-(1,1-dioxothian-3-yl)-N-methyl-5-[[6-(trifluoromethyl)pyridine-2-carbonyl]amino]pyrazolo[1,5-a]pyridine-6-carboxamide], the solubility thermodynamic at 24 h reads like this: under setting [1], below 0.75 µg/mL; under setting [2], below 0.75 µg/mL; under setting [3], below 0.75 µg/mL.
As for `COc1cn2nc(CCC(C)(C)O)cc2cc1NC(=O)c1cccc(C(F)(F)F)n1` [Compound 3, N-[2-(3-hydroxy-3-methylbutyl)-6-methoxypyrazolo[1,5-a]pyridin-5-yl]-6-(trifluoromethyl)pyridine-2-carboxamide], the solubility thermodynamic at 24 h under setting [1] is 106 µg/mL (≈ 251 µM), the solubility thermodynamic at 24 h under setting [2] was 0.801 µg/mL (≈ 1.9 µM) and the solubility thermodynamic at 24 h under setting [3] is 27.6 µg/mL (≈ 65.3 µM).
